Where “and” joins values, the source holds several entries; their conditions need not be identical. Equal values may be shown once.
Tested on: BDF1 mice, Adenocarcinoma 755 s.c., tumor weight T/C
Test: NCI In Vivo Anticancer Drug Screen. Data for tumor model Adenocarcinoma 755 (subcutaneous) in B6D2F1 (BDF1) mice
Details: endpoint: mean tumor weight, higher = larger tumour
Protocol: The antitumor activity of compounds was measured in mice bearing transplantable tumors. Survival or tumor size were measured and the results are expressed as the measurement made in the treated group (T) divided by the measurement made in the vehicle treated control group (C). The tumor model used in this assay is Adenocarcinoma 755 (subcutaneous) in B6D2F1 (BDF1) mice

[1] = dose: 12.5 mg/kg/injection, schedule: Q01DX011 (ip), vehicle: methylcellulose (MC)
[2] = dose: 25.0 mg/kg/injection, schedule: Q01DX011 (ip), vehicle: methylcellulose (MC)
[3] = dose: 50.0 mg/kg/injection, schedule: Q01DX011 (ip), vehicle: methylcellulose (MC)

CS(=O)(=O)OCCCCOS(C)(=O)=O
T/C (dose: 3.75 mg/kg/injection, schedule: Q03DX004 (ip), vehicle: saline): 111 % of control | T/C (dose: 5.0 mg/kg/injection, schedule: Q#A X022 (ip), vehicle: saline): 54 % of control | T/C (dose: 6.63 mg/kg/injection, schedule: Q01DX011 (ip), vehicle: carboxymethylcellulose (CMC)): 95 % of control | T/C (dose: 6.66 mg/kg/injection, schedule: Q01DX011 (ip), vehicle: carboxymethylcellulose (CMC)): 99 % of control | T/C (dose: 9.36 mg/kg/injection, schedule: Q01DX011 (ip), vehicle: carboxymethylcellulose (CMC)): 66 % of control | T/C (dose: 10.0 mg/kg/injection, schedule: Q01DX006 (iv), vehicle: saline): 117 % of control | T/C (dose: 10.0 mg/kg/injection, schedule: Q01DX011 (im), vehicle: saline): 36 % of control | T/C (dose: 10.0 mg/kg/injection, schedule: Q01DX011 (ip), vehicle: carboxymethylcellulose (CMC)): 62 % of control | T/C (dose: 10.0 mg/kg/injection, schedule: Q01DX011 (ip), vehicle: saline): 71 % of control | T/C (dose: 10.0 mg/kg/injection, schedule: Q01DX011 (oral), vehicle: saline): 81 % of control | T/C (dose: 10.0 mg/kg/injection, schedule: Q01DX011 (sc), vehicle: saline): 35 % of control | T/C (dose: 10.0 mg/kg/injection, schedule: Q#A X022 (ip), vehicle: saline): 80 % of control | T/C [1]: 119 % of control | T/C (dose: 13.25 mg/kg/injection, schedule: Q01DX011 (ip), vehicle: carboxymethylcellulose (CMC)): 101 % of control | T/C (dose: 15.0 mg/kg/injection, schedule: Q03DX004 (ip), vehicle: saline): 87 % of control | T/C (dose: 16.75 mg/kg/injection, schedule: Q01DX011 (ip), vehicle: carboxymethylcellulose (CMC)): 68 % of control | T/C (dose: 17.5 mg/kg/injection, schedule: Q01DX011 (ip), vehicle: carboxymethylcellulose (CMC)): 106 % of control | T/C (dose: 17.87 mg/kg/injection, schedule: Q01DX011 (ip), vehicle: carboxymethylcellulose (CMC)): 77 % of control | T/C (dose: 18.73 mg/kg/injection, schedule: Q01DX011 (ip), vehicle: carboxymethylcellulose (CMC)): 76 % of control | T/C (dose: 20.0 mg/kg/injection, schedule: Q01DX006 (iv), vehicle: saline): 100 % of control | T/C (dose: 20.0 mg/kg/injection, schedule: Q01DX011 (im), vehicle: saline): 76 % of control | T/C (dose: 20.0 mg/kg/injection, schedule: Q01DX011 (ip), vehicle: carboxymethylcellulose (CMC)): 76 % of control | T/C (dose: 20.0 mg/kg/injection, schedule: Q01DX011 (oral), vehicle: saline): 49 % of control | T/C (dose: 20.0 mg/kg/injection, schedule: Q01DX011 (sc), vehicle: saline): 104 % of control | T/C (dose: 20.0 mg/kg/injection, schedule: Q#A X022 (ip), vehicle: saline): 39 % of control | T/C (dose: 21.2 mg/kg/injection, schedule: Q01DX011 (ip), vehicle: carboxymethylcellulose (CMC)): 91 % of control | T/C (dose: 21.32 mg/kg/injection, schedule: Q01DX011 (ip), vehicle: carboxymethylcellulose (CMC)): 81 % of control | T/C [2]: 77 % of control | T/C (dose: 26.5 mg/kg/injection, schedule: Q01DX011 (ip), vehicle: carboxymethylcellulose (CMC)): 26 % of control and 50 % of control | T/C (dose: 26.65 mg/kg/injection, schedule: Q01DX011 (ip), vehicle: carboxymethylcellulose (CMC)): 53 % of control and 63 % of control | T/C (dose: 33.5 mg/kg/injection, schedule: Q01DX011 (ip), vehicle: carboxymethylcellulose (CMC)): 83 % of control | T/C (dose: 35.0 mg/kg/injection, schedule: Q01DX011 (ip), vehicle: carboxymethylcellulose (CMC)): 98 % of control | T/C (dose: 35.33 mg/kg/injection, schedule: Q01DX011 (ip), vehicle: carboxymethylcellulose (CMC)): 34 % of control | T/C (dose: 35.5 mg/kg/injection, schedule: Q01DX011 (ip), vehicle: carboxymethylcellulose (CMC)): 38 % of control | T/C (dose: 35.75 mg/kg/injection, schedule: Q01DX011 (ip), vehicle: carboxymethylcellulose (CMC)): 81 % of control | T/C (dose: 37.45 mg/kg/injection, schedule: Q01DX011 (ip), vehicle: carboxymethylcellulose (CMC)): 73 % of control | T/C (dose: 40.0 mg/kg/injection, schedule: Q01DX006 (iv), vehicle: saline): 84 % of control | T/C (dose: 40.0 mg/kg/injection, schedule: Q01DX011 (im), vehicle: saline): 17 % of control | T/C (dose: 40.0 mg/kg/injection, schedule: Q01DX011 (ip), vehicle: carboxymethylcellulose (CMC)): 10 % of control | T/C (dose: 40.0 mg/kg/injection, schedule: Q01DX011 (oral), vehicle: saline): 30 % of control and 49 % of control | T/C (dose: 40.0 mg/kg/injection, schedule: Q01DX011 (sc), vehicle: saline): 41 % of control and 45 % of control | T/C (dose: 40.0 mg/kg/injection, schedule: Q#A X022 (ip), vehicle: saline): 17 % of control | T/C [3]: 30 % of control | T/C (dose: 53.0 mg/kg/injection, schedule: Q01DX011 (ip), vehicle: carboxymethylcellulose (CMC)): 3 % of control | T/C (dose: 53.3 mg/kg/injection, schedule: Q01DX011 (ip), vehicle: carboxymethylcellulose (CMC)): 1 % of control | T/C (dose: 57.96 mg/kg/injection, schedule: Q01DX011 (ip), vehicle: carboxymethylcellulose (CMC)): 113 % of control | T/C (dose: 60.0 mg/kg/injection, schedule: Q03DX004 (ip), vehicle: saline): 67 % of control and 71 % of control | T/C (dose: 67.0 mg/kg/injection, schedule: Q01DX011 (ip), vehicle: carboxymethylcellulose (CMC)): 37 % of control | T/C (dose: 70.0 mg/kg/injection, schedule: Q01DX001 (ip), vehicle: saline): 90 % of control | T/C (dose: 70.0 mg/kg/injection, schedule: Q01DX011 (ip), vehicle: carboxymethylcellulose (CMC)): 49 % of control | T/C (dose: 70.0 mg/kg/injection, schedule: Q07DX002 (ip), vehicle: saline): 99 % of control | T/C (dose: 71.5 mg/kg/injection, schedule: Q01DX011 (ip), vehicle: carboxymethylcellulose (CMC)): 58 % of control | T/C (dose: 72.45 mg/kg/injection, schedule: Q01DX011 (ip), vehicle: carboxymethylcellulose (CMC)): 29 % of control | T/C (dose: 80.0 mg/kg/injection, schedule: Q01DX006 (iv), vehicle: saline): 88 % of control | T/C (dose: 80.0 mg/kg/injection, schedule: Q01DX011 (oral), vehicle: saline): 17 % of control and 27 % of control | T/C (dose: 96.6 mg/kg/injection, schedule: Q01DX011 (ip), vehicle: carboxymethylcellulose (CMC)): 19 % of control | T/C (dose: 120.0 mg/kg/injection, schedule: Q03DX004 (ip), vehicle: saline): 39 % of control and 62 % of control | T/C (dose: 140.0 mg/kg/injection, schedule: Q01DX001 (ip), vehicle: saline): 98 % of control and 111 % of control | T/C (dose: 140.0 mg/kg/injection, schedule: Q07DX002 (ip), vehicle: saline): 91 % of control | T/C (dose: 160.0 mg/kg/injection, schedule: Q01DX011 (ip), vehicle: saline): 14 % of control | T/C (dose: 160.0 mg/kg/injection, schedule: Q01DX011 (oral), vehicle: saline): 41 % of control | T/C (dose: 240.0 mg/kg/injection, schedule: Q03DX004 (ip), vehicle: saline): 24 % of control and 38 % of control | T/C (dose: 280.0 mg/kg/injection, schedule: Q07DX002 (ip), vehicle: saline): 77 % of control | T/C (dose: 320.0 mg/kg/injection, schedule: Q01DX011 (oral), vehicle: saline): 9 % of control | T/C (dose: 1120.0 mg/kg/injection, schedule: Q01DX001 (ip), vehicle: saline): 58 % of control

O=C(O)CNc1ncnc2[nH]ncc12
T/C [1]: 65 % of control | T/C [2]: 82 % of control | T/C [3]: 36 % of control | T/C (dose: 100.0 mg/kg/injection, schedule: Q01DX011 (ip), vehicle: methylcellulose (MC)): 2 % of control and 7 % of control

Nc1ccn(C2OC(CO)C(O)C2O)c(=O)n1 (stereo not given)
T/C (dose: 15.0 mg/kg/injection, schedule: Q01DX011 (ip), vehicle: saline): 36 % of control | T/C (dose: 27.0 mg/kg/injection, schedule: Q01DX011 (ip), vehicle: saline): 14 % of control | T/C (dose: 30.0 mg/kg/injection, schedule: Q01DX011 (ip), vehicle: saline): 36 % of control | T/C (dose: 40.0 mg/kg/injection, schedule: Q01DX011 (ip), vehicle: saline): 7 % of control | T/C (dose: 60.0 mg/kg/injection, schedule: Q## X024 (ip), vehicle: saline): 15 % of control | T/C (dose: 120.0 mg/kg/injection, schedule: Q## X024 (ip), vehicle: saline): 8 % of control

Reference: PubChem BioAssay AID180 (DTP/NCI, 2004)
